# Assay results published in patent publication US20240269139A1, “COMPOUNDS FOR TARGETED PROTEIN DEGRADATION OF KINASES” (DANA-FARBER CANCER INSTITUTE, INC., priority 2020, published 2024).
# Read-outs that look alike come from different tables or passages of the source.
# What was measured:
# Format in all cases: cell-based
# [1] = tested on: protein kinases (human kinome); conditions: for logFC MAPK8 (P45983-4): direction down; for logFC MAPK8: MAPK8 P45983-4
# [2] = biological target: protein kinases (human kinome) (Homo sapiens, UniProt P49674); conditions: CSNK1E P49674; experiment wp071
# [3] = biological target: protein kinases (human kinome) (Homo sapiens, UniProt P51451)
# Sequence of protein kinases (human kinome) (Homo sapiens, UniProt P51451) (P51451 whole entry): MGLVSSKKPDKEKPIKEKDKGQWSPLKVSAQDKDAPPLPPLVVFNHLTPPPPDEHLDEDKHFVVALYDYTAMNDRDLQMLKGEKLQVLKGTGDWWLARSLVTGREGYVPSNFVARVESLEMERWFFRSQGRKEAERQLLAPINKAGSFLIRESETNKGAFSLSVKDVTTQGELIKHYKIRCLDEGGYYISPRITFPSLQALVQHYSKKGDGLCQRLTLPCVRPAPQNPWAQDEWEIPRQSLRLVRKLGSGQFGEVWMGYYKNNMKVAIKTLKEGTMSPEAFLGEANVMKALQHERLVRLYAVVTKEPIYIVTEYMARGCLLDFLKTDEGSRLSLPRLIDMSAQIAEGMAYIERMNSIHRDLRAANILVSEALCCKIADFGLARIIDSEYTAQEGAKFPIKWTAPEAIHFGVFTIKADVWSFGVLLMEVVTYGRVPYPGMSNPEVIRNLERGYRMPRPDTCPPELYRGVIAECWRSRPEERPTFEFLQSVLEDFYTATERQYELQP
# [4] = biological target: protein kinases (human kinome) (Homo sapiens, UniProt P53667); conditions: LIMK1 (P53667-1)
# Sequence of protein kinases (human kinome) (Homo sapiens, UniProt P53667) (P53667 whole entry): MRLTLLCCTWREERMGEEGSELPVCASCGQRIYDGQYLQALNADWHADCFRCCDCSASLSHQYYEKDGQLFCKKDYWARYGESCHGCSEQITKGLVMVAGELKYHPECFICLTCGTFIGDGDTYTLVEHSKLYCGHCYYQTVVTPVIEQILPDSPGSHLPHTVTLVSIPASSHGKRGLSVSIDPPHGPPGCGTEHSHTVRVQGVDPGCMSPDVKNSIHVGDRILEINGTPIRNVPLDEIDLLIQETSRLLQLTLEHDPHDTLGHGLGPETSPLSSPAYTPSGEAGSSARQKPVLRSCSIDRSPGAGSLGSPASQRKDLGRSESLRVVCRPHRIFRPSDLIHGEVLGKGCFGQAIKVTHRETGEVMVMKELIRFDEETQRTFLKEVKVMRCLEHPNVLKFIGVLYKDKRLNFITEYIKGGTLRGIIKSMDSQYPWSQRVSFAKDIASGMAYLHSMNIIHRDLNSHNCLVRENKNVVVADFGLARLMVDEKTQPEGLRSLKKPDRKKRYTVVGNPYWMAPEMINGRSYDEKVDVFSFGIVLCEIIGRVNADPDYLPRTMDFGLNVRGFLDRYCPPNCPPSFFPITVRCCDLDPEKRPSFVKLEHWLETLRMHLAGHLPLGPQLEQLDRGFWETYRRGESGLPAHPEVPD
# [5] = biological target: T1, protein kinases (human kinome) (Homo sapiens, UniProt Q13163); conditions: experiment wp071
# T1 sequence (Q13163 1-448): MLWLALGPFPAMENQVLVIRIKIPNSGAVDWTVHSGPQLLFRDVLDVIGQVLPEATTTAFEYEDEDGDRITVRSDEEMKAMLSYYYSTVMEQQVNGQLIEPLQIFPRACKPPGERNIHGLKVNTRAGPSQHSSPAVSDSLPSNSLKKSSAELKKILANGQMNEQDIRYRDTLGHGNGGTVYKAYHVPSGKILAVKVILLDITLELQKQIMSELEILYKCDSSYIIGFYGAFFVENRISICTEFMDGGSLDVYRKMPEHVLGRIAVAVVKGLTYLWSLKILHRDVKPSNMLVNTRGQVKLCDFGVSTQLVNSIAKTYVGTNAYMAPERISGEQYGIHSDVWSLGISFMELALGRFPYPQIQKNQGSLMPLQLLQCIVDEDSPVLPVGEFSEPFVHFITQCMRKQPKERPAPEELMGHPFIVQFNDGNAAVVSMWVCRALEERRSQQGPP
# [6] = biological target: T2, protein kinases (human kinome) (Homo sapiens, UniProt O95835); conditions: LATS1 O95835; experiment wp071
# T2 sequence (O95835 1-1130): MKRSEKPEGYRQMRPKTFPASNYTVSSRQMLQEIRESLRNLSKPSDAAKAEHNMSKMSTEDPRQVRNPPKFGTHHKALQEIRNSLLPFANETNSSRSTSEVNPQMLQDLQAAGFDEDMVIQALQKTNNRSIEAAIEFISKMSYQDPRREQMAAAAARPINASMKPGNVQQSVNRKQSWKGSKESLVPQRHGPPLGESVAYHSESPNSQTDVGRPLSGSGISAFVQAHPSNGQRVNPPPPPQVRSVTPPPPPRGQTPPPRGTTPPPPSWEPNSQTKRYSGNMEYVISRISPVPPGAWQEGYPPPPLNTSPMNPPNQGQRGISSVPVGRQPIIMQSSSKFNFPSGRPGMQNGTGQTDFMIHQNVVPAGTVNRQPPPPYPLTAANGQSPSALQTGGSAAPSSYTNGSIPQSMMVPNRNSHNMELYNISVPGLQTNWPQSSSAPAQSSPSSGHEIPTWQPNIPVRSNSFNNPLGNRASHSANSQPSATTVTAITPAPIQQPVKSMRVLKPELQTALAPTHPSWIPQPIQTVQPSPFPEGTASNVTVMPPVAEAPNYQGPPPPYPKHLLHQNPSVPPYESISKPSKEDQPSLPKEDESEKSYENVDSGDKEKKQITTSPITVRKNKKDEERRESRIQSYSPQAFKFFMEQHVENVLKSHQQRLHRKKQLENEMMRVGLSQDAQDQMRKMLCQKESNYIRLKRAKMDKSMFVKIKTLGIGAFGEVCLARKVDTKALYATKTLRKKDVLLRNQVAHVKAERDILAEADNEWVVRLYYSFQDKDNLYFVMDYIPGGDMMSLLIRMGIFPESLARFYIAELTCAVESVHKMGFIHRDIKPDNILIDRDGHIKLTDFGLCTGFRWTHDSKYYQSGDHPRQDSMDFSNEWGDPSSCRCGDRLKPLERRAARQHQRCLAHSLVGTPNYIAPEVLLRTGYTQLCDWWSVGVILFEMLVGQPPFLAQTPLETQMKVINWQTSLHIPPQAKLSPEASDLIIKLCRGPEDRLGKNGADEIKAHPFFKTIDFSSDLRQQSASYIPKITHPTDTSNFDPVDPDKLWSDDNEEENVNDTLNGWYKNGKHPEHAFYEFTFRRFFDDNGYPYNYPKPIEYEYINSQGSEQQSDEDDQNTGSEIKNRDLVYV
# [7] = biological target: protein kinases (human kinome) (Homo sapiens, UniProt P42684)
# [8] = biological target: protein kinases (human kinome) (Homo sapiens, UniProt P41240); conditions: experiment wp071
# Sequence of protein kinases (human kinome) (Homo sapiens, UniProt P41240) (P41240 whole entry): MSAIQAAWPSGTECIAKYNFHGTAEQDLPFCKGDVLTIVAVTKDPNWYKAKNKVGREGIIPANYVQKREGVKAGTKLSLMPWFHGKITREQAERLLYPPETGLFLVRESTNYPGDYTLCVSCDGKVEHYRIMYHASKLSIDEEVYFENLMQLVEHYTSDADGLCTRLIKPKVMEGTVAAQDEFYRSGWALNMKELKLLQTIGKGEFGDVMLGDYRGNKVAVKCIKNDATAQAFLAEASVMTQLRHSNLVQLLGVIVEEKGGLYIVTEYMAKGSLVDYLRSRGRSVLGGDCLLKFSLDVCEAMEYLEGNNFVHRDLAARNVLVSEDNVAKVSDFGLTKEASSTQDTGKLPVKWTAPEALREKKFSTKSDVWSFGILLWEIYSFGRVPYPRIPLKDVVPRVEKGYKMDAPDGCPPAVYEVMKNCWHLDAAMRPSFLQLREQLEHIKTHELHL
# [9] = biological target: protein kinases (human kinome) (Homo sapiens, UniProt O60307); conditions: experiment wp081
# [10] = biological target: protein kinases (human kinome) (Homo sapiens, UniProt Q16539)
# Sequence of protein kinases (human kinome) (Homo sapiens, UniProt Q16539) (Q16539 whole entry): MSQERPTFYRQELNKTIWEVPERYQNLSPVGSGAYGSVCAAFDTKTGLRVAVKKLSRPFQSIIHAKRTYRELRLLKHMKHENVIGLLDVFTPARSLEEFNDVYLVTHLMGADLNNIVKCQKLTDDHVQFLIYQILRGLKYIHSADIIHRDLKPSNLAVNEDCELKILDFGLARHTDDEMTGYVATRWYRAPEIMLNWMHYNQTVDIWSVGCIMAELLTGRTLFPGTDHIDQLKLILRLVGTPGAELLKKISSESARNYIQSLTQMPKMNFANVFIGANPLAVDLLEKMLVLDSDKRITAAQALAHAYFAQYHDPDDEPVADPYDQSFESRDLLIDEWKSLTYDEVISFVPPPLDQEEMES
# [11] = biological target: protein kinases (human kinome) (Homo sapiens, UniProt P11802)
# Sequence of protein kinases (human kinome) (Homo sapiens, UniProt P11802) (P11802 whole entry): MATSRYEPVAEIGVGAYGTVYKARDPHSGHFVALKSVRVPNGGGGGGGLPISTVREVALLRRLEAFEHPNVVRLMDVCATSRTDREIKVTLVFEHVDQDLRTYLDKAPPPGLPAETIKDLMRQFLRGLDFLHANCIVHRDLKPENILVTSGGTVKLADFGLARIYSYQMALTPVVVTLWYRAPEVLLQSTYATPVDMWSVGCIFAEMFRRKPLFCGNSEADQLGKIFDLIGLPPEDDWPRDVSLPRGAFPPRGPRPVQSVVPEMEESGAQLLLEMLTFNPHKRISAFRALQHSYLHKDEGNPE
# [12] = biological target: protein kinases (human kinome) (Homo sapiens, UniProt P53779); conditions: for logFC MAPK10 (P53779): direction of change down; for logFC: MAPK10 (P53779), experiment wp104
# Sequence of protein kinases (human kinome) (Homo sapiens, UniProt P53779) (P53779 whole entry): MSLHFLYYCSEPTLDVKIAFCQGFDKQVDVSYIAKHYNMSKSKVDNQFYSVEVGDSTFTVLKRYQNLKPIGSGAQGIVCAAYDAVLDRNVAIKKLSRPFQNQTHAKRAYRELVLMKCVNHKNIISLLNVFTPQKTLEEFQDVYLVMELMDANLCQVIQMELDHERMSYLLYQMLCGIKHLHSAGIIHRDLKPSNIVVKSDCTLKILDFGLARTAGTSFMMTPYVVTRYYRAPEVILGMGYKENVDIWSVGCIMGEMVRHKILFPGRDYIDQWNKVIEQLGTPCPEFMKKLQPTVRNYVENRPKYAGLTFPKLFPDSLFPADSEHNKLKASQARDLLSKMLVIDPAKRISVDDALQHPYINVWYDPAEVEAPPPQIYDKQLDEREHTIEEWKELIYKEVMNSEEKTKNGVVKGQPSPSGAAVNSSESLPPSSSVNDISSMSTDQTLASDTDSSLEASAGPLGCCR
# [13] = biological target: protein kinases (human kinome) (Homo sapiens, UniProt P45984); conditions: MAPK9 P45984-1, experiment wp104
# Sequence of protein kinases (human kinome) (Homo sapiens, UniProt P45984) (P45984 whole entry): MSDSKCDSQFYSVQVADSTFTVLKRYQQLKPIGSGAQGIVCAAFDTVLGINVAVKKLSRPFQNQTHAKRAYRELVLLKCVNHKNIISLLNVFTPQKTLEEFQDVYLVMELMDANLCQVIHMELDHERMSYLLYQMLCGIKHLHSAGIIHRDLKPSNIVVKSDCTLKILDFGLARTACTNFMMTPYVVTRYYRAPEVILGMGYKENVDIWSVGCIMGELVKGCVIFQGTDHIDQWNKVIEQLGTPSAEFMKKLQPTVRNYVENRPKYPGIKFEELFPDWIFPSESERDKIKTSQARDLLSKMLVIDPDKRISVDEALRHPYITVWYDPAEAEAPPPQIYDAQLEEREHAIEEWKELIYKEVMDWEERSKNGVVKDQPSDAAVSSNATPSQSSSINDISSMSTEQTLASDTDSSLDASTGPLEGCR
# [14] = biological target: protein kinases (human kinome) (Homo sapiens, UniProt P06493); conditions: CDK1 P06493
# Sequence of protein kinases (human kinome) (Homo sapiens, UniProt P06493) (P06493 whole entry): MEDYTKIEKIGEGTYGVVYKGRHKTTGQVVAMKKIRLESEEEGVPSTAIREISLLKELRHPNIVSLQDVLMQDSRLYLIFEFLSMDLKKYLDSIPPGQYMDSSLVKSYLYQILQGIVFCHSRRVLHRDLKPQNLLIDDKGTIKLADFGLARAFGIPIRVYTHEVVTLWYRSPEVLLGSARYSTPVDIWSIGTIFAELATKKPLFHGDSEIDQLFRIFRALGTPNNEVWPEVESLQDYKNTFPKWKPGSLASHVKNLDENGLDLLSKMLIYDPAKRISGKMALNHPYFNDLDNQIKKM
# [15] = biological target: T3, protein kinases (human kinome) (Homo sapiens, UniProt O14965)
# T3 sequence (O14965 1-403): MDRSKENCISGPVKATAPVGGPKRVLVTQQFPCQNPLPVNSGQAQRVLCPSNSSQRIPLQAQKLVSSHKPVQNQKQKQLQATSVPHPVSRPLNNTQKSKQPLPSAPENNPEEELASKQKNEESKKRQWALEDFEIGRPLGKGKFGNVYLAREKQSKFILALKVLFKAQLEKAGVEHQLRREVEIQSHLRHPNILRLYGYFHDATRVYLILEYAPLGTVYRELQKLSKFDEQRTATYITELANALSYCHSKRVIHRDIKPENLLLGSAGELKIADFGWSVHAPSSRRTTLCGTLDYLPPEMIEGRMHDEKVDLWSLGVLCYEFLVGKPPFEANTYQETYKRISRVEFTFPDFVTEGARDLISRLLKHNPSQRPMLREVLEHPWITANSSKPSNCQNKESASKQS
# [16] = biological target: protein kinases (human kinome) (Homo sapiens, UniProt P50613); conditions: for logFC: CDK7 (P50613) protein abundance, degrader vs DMSO, down; for logFC CDK7: CDK7 P50613, experiment wp104
# Sequence of protein kinases (human kinome) (Homo sapiens, UniProt P50613) (P50613 whole entry): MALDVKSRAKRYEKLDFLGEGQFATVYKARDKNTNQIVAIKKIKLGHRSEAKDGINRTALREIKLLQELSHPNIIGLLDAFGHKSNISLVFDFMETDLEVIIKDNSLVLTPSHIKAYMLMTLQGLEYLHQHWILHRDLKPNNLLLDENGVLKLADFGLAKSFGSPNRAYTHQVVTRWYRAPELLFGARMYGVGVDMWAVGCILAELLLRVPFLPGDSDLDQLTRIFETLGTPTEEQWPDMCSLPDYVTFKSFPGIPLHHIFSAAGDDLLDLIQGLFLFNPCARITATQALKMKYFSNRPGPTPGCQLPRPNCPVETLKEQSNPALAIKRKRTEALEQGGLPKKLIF
# [17] = biological target: protein kinases (human kinome) (Homo sapiens, UniProt P24941)
# [18] = biological target: protein kinases (human kinome) (Homo sapiens, UniProt Q00535); conditions: for logFC of CDK5: Accession Q00535; for logFC CDK5 (Q00535): direction of change down
# Sequence of protein kinases (human kinome) (Homo sapiens, UniProt Q00535) (Q00535 whole entry): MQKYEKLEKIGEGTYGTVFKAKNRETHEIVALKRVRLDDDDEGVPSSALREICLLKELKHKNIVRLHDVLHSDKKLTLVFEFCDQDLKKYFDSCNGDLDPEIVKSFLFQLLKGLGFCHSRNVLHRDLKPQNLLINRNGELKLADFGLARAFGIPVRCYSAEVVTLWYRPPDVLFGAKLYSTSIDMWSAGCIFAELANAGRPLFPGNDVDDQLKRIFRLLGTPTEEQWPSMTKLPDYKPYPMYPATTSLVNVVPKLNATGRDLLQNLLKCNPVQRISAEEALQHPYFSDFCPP
# [19] = biological target: protein kinases (human kinome) (Homo sapiens, UniProt Q00534); conditions: for logFC CDK6: CDK6 (Q00534), direction down; for logFC of CDK6 (Q00534): down
# Sequence of protein kinases (human kinome) (Homo sapiens, UniProt Q00534) (Q00534 whole entry): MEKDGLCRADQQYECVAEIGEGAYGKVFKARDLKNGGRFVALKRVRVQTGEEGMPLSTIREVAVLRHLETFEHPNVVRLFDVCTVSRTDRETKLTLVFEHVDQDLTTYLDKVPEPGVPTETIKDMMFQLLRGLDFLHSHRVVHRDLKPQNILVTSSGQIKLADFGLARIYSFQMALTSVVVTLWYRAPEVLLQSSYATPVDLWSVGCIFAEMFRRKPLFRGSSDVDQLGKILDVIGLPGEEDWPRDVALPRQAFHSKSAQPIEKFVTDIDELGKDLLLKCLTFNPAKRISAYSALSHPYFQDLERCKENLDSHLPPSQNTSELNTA
# [20] = biological target: protein kinases (human kinome) (Homo sapiens, UniProt Q00537); conditions: for logFC of CDK17: Accession Q00537; for logFC CDK17 (Q00537): direction of change down
# Sequence of protein kinases (human kinome) (Homo sapiens, UniProt Q00537) (Q00537 whole entry): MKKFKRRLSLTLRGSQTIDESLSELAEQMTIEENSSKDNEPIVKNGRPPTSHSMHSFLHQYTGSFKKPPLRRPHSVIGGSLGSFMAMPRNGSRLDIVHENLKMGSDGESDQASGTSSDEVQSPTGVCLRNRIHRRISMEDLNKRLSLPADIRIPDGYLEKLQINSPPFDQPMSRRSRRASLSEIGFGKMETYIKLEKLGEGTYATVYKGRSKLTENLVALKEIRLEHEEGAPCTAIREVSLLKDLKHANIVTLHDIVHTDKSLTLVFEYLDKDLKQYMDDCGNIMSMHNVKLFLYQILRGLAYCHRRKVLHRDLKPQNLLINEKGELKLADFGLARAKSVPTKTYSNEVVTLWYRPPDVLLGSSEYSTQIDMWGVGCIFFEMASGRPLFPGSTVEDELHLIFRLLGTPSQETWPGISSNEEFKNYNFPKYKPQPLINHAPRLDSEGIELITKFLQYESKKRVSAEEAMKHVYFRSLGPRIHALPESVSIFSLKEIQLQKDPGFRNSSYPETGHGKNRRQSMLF
compound,measurement,setting,value
Nc1ncnc2c1c(-c1ccc(Oc3ccccc3)cc1)nn2[C@H]1CC[C@H](N2CCN(CCCCCCNC(=O)COc3cccc4c3C(=O)N(C3CCC(=O)NC3=O)C4=O)CC2)CC1 (some centres unmarked) [SB1.G.200],logFC ABL1,"[1]; ABL1 (P00519-2), experiment wp071",−1.646
same,logFC FYN,"[1]; Accession P06241-2, experiment wp071",−1.777
same,logFC of SRC,"[1]; Accession P12931-2, experiment wp071",−2.174
same,logFC FYN,"[1]; FYN P06241-2, experiment wp071",−1.777
same,logFC LCK,"[1]; LCK, accession P06239-3, experiment wp071, direction of change down",−1.275
same,logFC,"[1]; SRC (P12931-2) protein abundance, degrader vs DMSO, down",−2.174
same,logFC ABL1 (P00519-2),[1]; experiment wp071,−1.646
same,logFC LCK (P06239-3),"[1]; experiment wp071, direction of change down",−1.275
same,logFC,[2],−0.76
same,logFC CSNK1E,[2],−0.76
same,logFC BLK,"[3]; BLK (P51451), direction down, experiment wp071",−1.525
same,logFC of BLK (P51451),"[3]; Experiment wp071, down",−1.525
same,logFC LIMK1,"[4]; direction down, experiment wp071",−0.775
same,logFC LIMK1,"[4]; experiment wp071, down",−0.775
same,logFC,[5]; MAP2K5 (Q13163-1),−1.433
same,logFC of MAP2K5 (Q13163-1),[5],−1.433
same,logFC,[6],−1.403
same,logFC LATS1,[6],−1.403
same,logFC,"[7]; ABL2 (P42684) protein abundance, degrader vs DMSO, down",−2.103
same,logFC ABL2 (P42684),[7]; experiment wp071,−2.103
same,logFC of CSK,[8]; Accession P41240,−3.011
same,logFC CSK,"[8]; CSK (P41240), down",−3.011
CC(C)(C)c1cc(NC(=O)Nc2ccc(Oc3ccnc(C(=O)NCCOCCOCCNC(=O)CNc4cccc5c4C(=O)N(C4CCC(=O)NC4=O)C5=O)c3)cc2F)n(-c2ccc3ncccc3c2)n1 (centres unmarked) [TL13.178],logFC MAP3K20 (Q9NYL2-2),[1]; Experiment wp081,−1.407
same,logFC MAPK14,"[1]; MAPK14, accession Q16539-2, experiment wp081, direction of change down",−0.3343
same,logFC MAPK14,"[1]; MAPK14 Q16539-2, experiment wp081",−0.3343
same,logFC MAP3K20 (Q9NYL2-2),[1]; experiment wp081,−1.407
same,logFC MAST3 (O60307),[9]; direction of change down,−0.4852
same,logFC MAST3,"[9]; protein MAST3 (O60307), down",−0.4852
same,logFC LIMK1,"[4]; direction down, experiment wp081",−0.3359
same,logFC LIMK1,"[4]; experiment wp081, down",−0.3359
same,logFC,"[10]; MAPK14 (Q16539) protein abundance, degrader vs DMSO, down",−0.5659
same,logFC MAPK14,"[10]; MAPK14, accession Q16539, experiment wp081, direction of change down",−0.5659
same,logFC CDK4 (P11802),[11]; experiment wp081,−0.5762
NC(=O)c1c(F)cccc1Nc1nc(NC2CCN(S(=O)(=O)CCNC(=O)CCCCCCCCOc3cccc4c3C(=O)N(C3CCC(=O)NC3=O)C4=O)CC2)ncc1Br (centres unmarked) [TMX.01.160.1],logFC MAPK10 (P53779),[12]; Experiment wp104_TMX.01.160.1_0.25,−0.5743
same,logFC MAPK10 (P53779),[12]; Experiment wp104_TMX.01.160.1_1,−0.5743
same,logFC,[12]; suffix _0.25,−0.5743
same,logFC,[12]; suffix _1,−0.5743
same,logFC MAPK8 (P45983-4),"[1]; Experiment wp104, _0.25",−0.3338
same,logFC MAPK8 (P45983-4),"[1]; Experiment wp104, _1",−0.476
same,logFC MAPK8,"[1]; experiment wp104, _0.25",−0.3338
same,logFC MAPK8,"[1]; experiment wp104, _1",−0.476
same,logFC CDK16 (Q00536-2),"[1]; experiment wp104, 0.25",−0.8646
same,logFC CDK16 (Q00536-2),"[1]; experiment wp104, 1",−0.6009
same,logFC CDK16 (Q00536-2),"[1]; experiment wp104, suffix _0.25",−0.8646
same,logFC CDK16 (Q00536-2),"[1]; experiment wp104, suffix _1",−0.6009
same,logFC,[13]; _0.25,−1.635
same,logFC MAPK9,[13]; _0.25,−1.635
same,logFC,[13]; _1,−1.496
same,logFC MAPK9,[13]; _1,−1.496
same,logFC,"[14]; experiment wp104, 0.25",−0.7936
same,logFC CDK1,"[14]; experiment wp104, 0.25",−0.7936
same,logFC,"[14]; experiment wp104, 1",−0.9413
same,logFC CDK1,"[14]; experiment wp104, 1",−0.9413
same,logFC AURKA (O14965),"[15]; experiment wp104, _0.25",−1.326
same,logFC AURKA (O14965),"[15]; experiment wp104, _1",−1.466
same,logFC,[16]; experiment suffix _0.25,−0.4941
same,logFC,[16]; experiment suffix _1,−0.5204
same,logFC CDK7,[16]; _0.25,−0.4941
same,logFC CDK7,[16]; _1,−0.5204
same,logFC CDK2 (P24941-1),"[17]; experiment wp104, _0.25",−1.024
same,logFC CDK2 (P24941-1),"[17]; experiment wp104, _0.25, direction of change down",−1.024
same,logFC CDK2 (P24941-1),"[17]; experiment wp104, _1",−0.9457
same,logFC CDK2 (P24941-1),"[17]; experiment wp104, _1, direction of change down",−0.9457
same,logFC of CDK5,"[18]; experiment wp104, suffix _0.25",−1.866
same,logFC of CDK5,"[18]; experiment wp104, suffix _1",−1.827
same,logFC CDK5 (Q00535),"[18]; experiment wp104, _0.25",−1.866
same,logFC CDK5 (Q00535),"[18]; experiment wp104, _1",−1.827
same,logFC CDK4 (P11802),"[11]; experiment wp104, _0.25",−0.5542
same,logFC CDK4 (P11802),"[11]; experiment wp104, _1",−0.7676
same,logFC CDK6,"[19]; experiment wp104, _0.25",−0.866
same,logFC CDK6,"[19]; experiment wp104, _1",−0.8425
same,logFC of CDK6 (Q00534),"[19]; Experiment wp104, _0.25",−0.866
same,logFC of CDK6 (Q00534),"[19]; Experiment wp104, _1",−0.8425
same,logFC of CDK17,"[20]; experiment wp104, suffix _0.25",−0.7788
same,logFC of CDK17,"[20]; experiment wp104, suffix _1",−0.6817
same,logFC CDK17 (Q00537),"[20]; experiment wp104, _0.25",−0.7788
same,logFC CDK17 (Q00537),"[20]; experiment wp104, _1",−0.6817
